According to patent US20110319416A1, “Subunit Selective NMDA Receptor Antagonists For The Treatment Of Neurological Conditions” (EMORY UNIVERSITY, priority 2009, published 2011):
Marks after values point to notes of the source that are not given here.

Experiments:
NR1/NR2C [1] = target: NR1/NR2C (Rattus norvegicus, UniProt P35439+Q00961); assay: Two electrode voltage clamp, Xenopus oocytes expressing recombinant NR1/NR2C; assay type: cell-based; settings: logistic fit, minimum forced to 0; read-out: 2C IC50
Description: (§1) Quality of synthesized cRNA was assessed by gel electrophoresis, and quantity was estimated by spectroscopy and gel electrophoresis. Stage V and VI oocytes were surgically removed from the ovaries of large, well-fed and healthy Xenopus laevis anesthetized with 3-amino-benzoic acid ethyl ester (3 gm/l) as previously described. Clusters of isolated oocytes were incubated with 292 U/ml Worthington (Freehold, N.J.) type IV collagenase or 1.3 mg/ml collagenase (Life Technologies, Gaithersburg, MD; 17018-029) for 2 hr in Ca^2+-free solution comprised of (in mM) 115 NaCl, 2.5 KCl, and 10 HEPES, pH 7.5, with slow agitation to remove the follicular cell layer. Oocytes were then washed extensively in the same solution supplemented with 1.8 mM CaCl2 and maintained in Barth's solution comprised of (in mM): 88 NaCl, 1 KCl, 2.4 NaHCO3, 10 HEPES, 0.82 MgSO4, 0.33 Ca(NO3)2, and 0.91 CaCl2 and supplemented with 100 μg/m1 gentamycin, 10 μg/ml streptomycin, and 10 μg/ml penicillin. Oocytes were manually defolliculated and injected within 24 hrs of isolation with 3-5 ng of NR1 subunit cRNA and 7-10 ng of NR2 cRNA subunit in a 50 nl volume, or 5-10 ng of AMPA or kainate receptor cRNAs in a 50 nl volume, and incubated in Barth's solution at 18° C. for 1-7 d. Glass injection pipettes had tip sizes ranging from 10-20 microns, and were backfilled with mineral oil.
(§2) Two electrode voltage-clamp recordings were made 2-7 days post-injection as previously described. Oocytes were placed in a dual-track plexi-glass recording chamber with a single perfusion line that splits in a Y-configuration to perfuse two oocytes. Dual recordings were made at room temperature (23° C.) using two Warner OC725B two-electrode voltage clamp amplifiers, arranged as recommended by the manufacturer. Glass microelectrodes (1-10 Megaohms) were filled with 300 mM KCl (voltage electrode) or 3 M KCl (current electrode). The bath clamps communicated across silver chloride wires placed into each side of the recording chamber, both of which were assumed to be at a reference potential of 0 mV. Oocytes were perfused with a solution comprised of (in mM) 90 NaCl, 1 KCl, 10 HEPES, and 0.5 BaCl2; pH was adjusted by addition of 1-3 M NaOH of HC1 to 7.4. Oocytes were recorded under voltage clamp at −40 mV. […] In some experiments, 10 μM EDTA was obtained by adding a 1:1000 dilution of 10 mM EDTA, in order to chelate contaminant divalent ions such as Zn^2+. […] Concentration effect curves consisting of 4 to 8 concentrations were obtained in this manner. The baseline leak current at −40 mV was measured before and after recording, and the full recording linearly corrected for any change in leak current. […] Each experiment consisted of recordings from 3 to 10 oocytes obtained from a single frog. Results from multiple experiments were pooled, and the average percent responses at antagonist concentrations were fitted by the equation,
(§3) Percent Response=(100−minimum)/(1+([conc]/IC50)nH)+minimum

NR1/NR2A [2] = target: NR1/NR2A (Rattus norvegicus, UniProt Q00959); assay: Two electrode voltage clamp, Xenopus oocytes expressing recombinant NR1/NR2A; assay type: cell-based; settings: for 2A percent response at the maximum tested concentration: at 100 μM
Description: as §1, §2, §3

NR1/NR2D [3] = target: NR1/NR2D (Rattus norvegicus, UniProt P35439+Q62645); assay: Two electrode voltage clamp, Xenopus oocytes expressing recombinant NR1/NR2D; assay type: cell-based; settings: logistic fit, minimum forced to 0; read-out: 2D IC50
Description: as §1, §2, §3

NR1/NR2B [4] = target: NR1/NR2B (Rattus norvegicus, UniProt P35439+Q00960); assay: Two electrode voltage clamp, Xenopus oocytes expressing recombinant NR1/NR2B; assay type: cell-based; settings: logistic fit, minimum forced to 0; read-out: 2B IC50
Description: as §1, §2, §3

NR2D [5] = target: T1, NR2D (Homo sapiens, UniProt O15399+Q05586); settings: cited from earlier work; for IC50: read-out: 2D (μM) IC50, non-competitive and uncompetitive antagonists; for potency estimated from few doses: Ki estimated from functionally determined IC50 at a single agonist concentration, read-out: 2D (μM) Ki**
NR2B [6] = target: T2, NR2B (Homo sapiens, UniProt Q05586+Q13224); assay: Literature functional antagonist potency at NR2B (Table 1); settings: for 2A/2B (ratio of Ki**): functional Ki ratio
NR2C = NR2C (Homo sapiens, UniProt Q05586+Q14957); settings: cited from earlier work; for IC50: read-out: 2C (μM) IC50, non-competitive and uncompetitive antagonists; for potency estimated from few doses: Ki estimated from functionally determined IC50 at a single agonist concentration, read-out: 2C (μM) Ki**
NR2A = NR2A (Homo sapiens, UniProt Q05586+Q12879); settings: cited from earlier work; for IC50: read-out: 2A (μM) IC50, non-competitive and uncompetitive antagonists; for potency estimated from few doses: Ki estimated from functionally determined IC50 at a single agonist concentration, read-out: 2A (μM) Ki**
NR2B [7] = target: T2, NR2B; settings: cited from earlier work; for potency estimated from few doses: Ki estimated from functionally determined IC50 at a single agonist concentration, read-out: 2B (μM) Ki**
NR2D [8] = target: T1, NR2D; assay: Literature functional antagonist potency at NR2D (Table 1); assay type: cell-based; settings: for 2A/2D (ratio of Ki**): functional Ki ratio
[9] = target: homomeric GluR6 kainate receptor (Rattus norvegicus, UniProt P42260); assay: Two electrode voltage clamp, Xenopus oocytes expressing homomeric GluR6; assay type: cell-based; settings: in words
Description: Real time Ca^2+ signals were recorded in 96 well plates using FlexStation II multi-mode plate readers. […] Test compounds were added to each well together with agonist to yield a final well concentration of 10 μM test compound in 0.9% DMSO. Compounds that altered the response of any well compared to on-plate control wells beyond 2.5-fold of the standard deviation (calculated from all wells on the plate) or by more than 40% of the control response on a given plate were selected for secondary screening using two-electrode voltage-clamp recordings from Xenopus oocytes expressing recombinant NR1/NR2D receptors. To complete the secondary screen, we obtained selected compounds in powder form. […] We subsequently initiated novel synthesis on this class of compound.
Quality of synthesized cRNA was assessed by gel electrophoresis, and quantity was estimated by spectroscopy and gel electrophoresis. Stage V and VI oocytes were surgically removed from the ovaries of large, well-fed and healthy Xenopus laevis anesthetized with 3-amino-benzoic acid ethyl ester (3 gm/l) as previously described. […]
Two electrode voltage-clamp recordings were made 2-7 days post-injection as previously described. […] Oocytes were recorded under voltage clamp at −40 mV. […] The baseline leak current at −40 mV was measured before and after recording, and the full recording linearly corrected for any change in leak current. […]

GluR1 = GluR1 (Rattus norvegicus, UniProt P19490); assay: Two electrode voltage clamp, Xenopus oocytes expressing GluR1; assay type: cell-based
Description: as §1, §2, §3

NR1/NR2C [10] = target: NR1/NR2C (Rattus norvegicus, UniProt Q00961); assay: Two electrode voltage clamp, Xenopus oocytes expressing recombinant NR1/NR2C; assay type: cell-based; settings: for IC50: logistic fit, minimum forced to 0, read-out: 2C IC50
Description: as §1, §2, §3

NR1/NR2A [11] = target: NR1/NR2A (Rattus norvegicus, UniProt P35439+Q00959); assay: Two electrode voltage clamp, Xenopus oocytes expressing recombinant NR1/NR2A; assay type: cell-based; settings: logistic fit, minimum forced to 0; read-out: 2A IC50
Description: as §1, §2, §3

NR1/NR2D [12] = target: T3, NR1/NR2D (Rattus norvegicus, UniProt Q62645); assay: Two electrode voltage clamp, Xenopus oocytes expressing recombinant NR1/NR2D; assay type: cell-based
Description: as §1, §2, §3

NR1/NR2B [13] = target: NR1/NR2B (Rattus norvegicus, UniProt Q00960); assay: Two electrode voltage clamp, Xenopus oocytes expressing recombinant NR1/NR2B; assay type: cell-based
Description: as §1, §2, §3

NR1/NR2D [14] = target: T3, NR1/NR2D; assay: Ca2+ fluorescence screening assay in NR1/NR2D expressing BHK cells (96 well); assay type: cell-based; parameters: expressed in transfected cells; host or cells: BHK-21 cells; NR1 induced by doxycyclin (Tet-On), NR2D constitutive; settings: 10 μM test compound, 100 μM glutamate/1 mM glycine
[15] = not surmounted by agonists at 500-fold of EC50

NR2A, sequence (Q12879 23-1464, other chains not shown): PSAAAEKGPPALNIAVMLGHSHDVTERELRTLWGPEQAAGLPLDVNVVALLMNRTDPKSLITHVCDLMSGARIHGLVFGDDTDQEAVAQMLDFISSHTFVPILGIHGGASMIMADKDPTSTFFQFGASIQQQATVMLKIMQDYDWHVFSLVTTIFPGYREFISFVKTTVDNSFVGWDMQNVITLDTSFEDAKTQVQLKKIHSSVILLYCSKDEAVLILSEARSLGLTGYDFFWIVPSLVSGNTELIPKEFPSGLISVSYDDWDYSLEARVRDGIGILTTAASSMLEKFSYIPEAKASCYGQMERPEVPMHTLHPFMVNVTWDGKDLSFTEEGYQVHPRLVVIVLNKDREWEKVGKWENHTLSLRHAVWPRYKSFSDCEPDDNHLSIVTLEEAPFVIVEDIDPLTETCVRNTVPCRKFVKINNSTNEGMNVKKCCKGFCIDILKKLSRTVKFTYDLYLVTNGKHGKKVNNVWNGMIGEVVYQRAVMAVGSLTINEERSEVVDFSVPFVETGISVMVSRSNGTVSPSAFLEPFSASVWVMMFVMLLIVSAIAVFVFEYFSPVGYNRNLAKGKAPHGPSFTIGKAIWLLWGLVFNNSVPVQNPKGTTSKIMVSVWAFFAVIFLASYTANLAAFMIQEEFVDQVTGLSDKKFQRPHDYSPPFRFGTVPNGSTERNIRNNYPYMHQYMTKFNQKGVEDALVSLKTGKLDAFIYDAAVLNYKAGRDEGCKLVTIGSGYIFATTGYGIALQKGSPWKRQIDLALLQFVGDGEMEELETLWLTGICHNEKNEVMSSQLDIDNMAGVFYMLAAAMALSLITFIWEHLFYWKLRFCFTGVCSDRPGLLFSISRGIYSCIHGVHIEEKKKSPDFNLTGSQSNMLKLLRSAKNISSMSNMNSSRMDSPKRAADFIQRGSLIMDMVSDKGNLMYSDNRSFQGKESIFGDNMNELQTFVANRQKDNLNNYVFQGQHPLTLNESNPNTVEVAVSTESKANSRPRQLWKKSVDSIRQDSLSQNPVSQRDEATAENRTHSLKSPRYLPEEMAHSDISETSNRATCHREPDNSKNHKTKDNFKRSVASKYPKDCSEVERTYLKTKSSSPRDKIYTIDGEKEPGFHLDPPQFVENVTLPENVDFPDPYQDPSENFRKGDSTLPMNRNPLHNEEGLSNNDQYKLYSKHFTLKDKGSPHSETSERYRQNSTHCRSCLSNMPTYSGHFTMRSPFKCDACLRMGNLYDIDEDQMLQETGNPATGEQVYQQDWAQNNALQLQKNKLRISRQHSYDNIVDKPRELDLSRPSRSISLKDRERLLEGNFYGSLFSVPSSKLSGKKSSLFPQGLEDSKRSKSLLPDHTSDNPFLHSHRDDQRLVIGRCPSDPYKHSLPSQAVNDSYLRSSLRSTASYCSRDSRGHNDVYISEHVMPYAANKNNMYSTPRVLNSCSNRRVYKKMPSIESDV
NR1/NR2B (Rattus norvegicus, UniProt P35439+Q00960), sequence (Q00960 27-1482, other chains not shown): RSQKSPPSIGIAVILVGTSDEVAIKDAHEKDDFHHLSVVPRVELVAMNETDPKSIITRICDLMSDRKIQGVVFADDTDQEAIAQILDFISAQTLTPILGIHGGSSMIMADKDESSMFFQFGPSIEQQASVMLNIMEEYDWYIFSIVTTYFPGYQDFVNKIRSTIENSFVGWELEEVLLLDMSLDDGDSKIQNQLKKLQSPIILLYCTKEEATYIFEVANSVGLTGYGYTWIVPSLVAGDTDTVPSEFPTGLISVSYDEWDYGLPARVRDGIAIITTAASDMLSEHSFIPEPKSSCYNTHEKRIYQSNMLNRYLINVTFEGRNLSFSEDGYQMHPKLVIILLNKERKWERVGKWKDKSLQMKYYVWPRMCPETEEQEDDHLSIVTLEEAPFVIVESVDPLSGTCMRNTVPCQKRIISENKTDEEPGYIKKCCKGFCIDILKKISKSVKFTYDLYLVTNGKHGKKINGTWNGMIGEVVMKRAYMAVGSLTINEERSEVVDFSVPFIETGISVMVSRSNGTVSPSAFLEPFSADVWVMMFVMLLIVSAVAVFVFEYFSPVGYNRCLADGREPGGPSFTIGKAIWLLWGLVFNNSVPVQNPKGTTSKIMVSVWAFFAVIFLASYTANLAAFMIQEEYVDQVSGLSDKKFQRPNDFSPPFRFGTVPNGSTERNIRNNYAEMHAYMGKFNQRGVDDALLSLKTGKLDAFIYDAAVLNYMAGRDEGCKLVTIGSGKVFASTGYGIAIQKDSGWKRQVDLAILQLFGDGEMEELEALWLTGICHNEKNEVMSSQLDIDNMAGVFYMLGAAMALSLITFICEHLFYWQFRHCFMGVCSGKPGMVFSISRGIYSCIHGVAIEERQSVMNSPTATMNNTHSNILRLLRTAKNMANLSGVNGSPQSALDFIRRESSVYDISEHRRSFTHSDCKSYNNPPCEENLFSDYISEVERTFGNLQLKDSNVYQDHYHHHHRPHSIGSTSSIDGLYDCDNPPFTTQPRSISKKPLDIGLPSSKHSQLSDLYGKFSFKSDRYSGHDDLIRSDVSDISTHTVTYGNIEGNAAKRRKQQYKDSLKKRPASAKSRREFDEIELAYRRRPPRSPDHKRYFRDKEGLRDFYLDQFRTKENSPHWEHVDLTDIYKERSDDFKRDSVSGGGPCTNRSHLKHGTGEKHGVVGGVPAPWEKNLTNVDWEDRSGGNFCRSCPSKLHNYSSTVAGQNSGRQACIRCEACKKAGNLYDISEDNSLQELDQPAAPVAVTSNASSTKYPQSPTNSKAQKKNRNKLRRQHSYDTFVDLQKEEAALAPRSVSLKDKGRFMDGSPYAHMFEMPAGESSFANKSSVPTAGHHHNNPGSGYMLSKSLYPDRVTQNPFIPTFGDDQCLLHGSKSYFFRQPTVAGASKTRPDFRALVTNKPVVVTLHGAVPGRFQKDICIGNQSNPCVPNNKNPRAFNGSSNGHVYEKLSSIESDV
T1 sequence (O15399 28-1336, other chains not shown): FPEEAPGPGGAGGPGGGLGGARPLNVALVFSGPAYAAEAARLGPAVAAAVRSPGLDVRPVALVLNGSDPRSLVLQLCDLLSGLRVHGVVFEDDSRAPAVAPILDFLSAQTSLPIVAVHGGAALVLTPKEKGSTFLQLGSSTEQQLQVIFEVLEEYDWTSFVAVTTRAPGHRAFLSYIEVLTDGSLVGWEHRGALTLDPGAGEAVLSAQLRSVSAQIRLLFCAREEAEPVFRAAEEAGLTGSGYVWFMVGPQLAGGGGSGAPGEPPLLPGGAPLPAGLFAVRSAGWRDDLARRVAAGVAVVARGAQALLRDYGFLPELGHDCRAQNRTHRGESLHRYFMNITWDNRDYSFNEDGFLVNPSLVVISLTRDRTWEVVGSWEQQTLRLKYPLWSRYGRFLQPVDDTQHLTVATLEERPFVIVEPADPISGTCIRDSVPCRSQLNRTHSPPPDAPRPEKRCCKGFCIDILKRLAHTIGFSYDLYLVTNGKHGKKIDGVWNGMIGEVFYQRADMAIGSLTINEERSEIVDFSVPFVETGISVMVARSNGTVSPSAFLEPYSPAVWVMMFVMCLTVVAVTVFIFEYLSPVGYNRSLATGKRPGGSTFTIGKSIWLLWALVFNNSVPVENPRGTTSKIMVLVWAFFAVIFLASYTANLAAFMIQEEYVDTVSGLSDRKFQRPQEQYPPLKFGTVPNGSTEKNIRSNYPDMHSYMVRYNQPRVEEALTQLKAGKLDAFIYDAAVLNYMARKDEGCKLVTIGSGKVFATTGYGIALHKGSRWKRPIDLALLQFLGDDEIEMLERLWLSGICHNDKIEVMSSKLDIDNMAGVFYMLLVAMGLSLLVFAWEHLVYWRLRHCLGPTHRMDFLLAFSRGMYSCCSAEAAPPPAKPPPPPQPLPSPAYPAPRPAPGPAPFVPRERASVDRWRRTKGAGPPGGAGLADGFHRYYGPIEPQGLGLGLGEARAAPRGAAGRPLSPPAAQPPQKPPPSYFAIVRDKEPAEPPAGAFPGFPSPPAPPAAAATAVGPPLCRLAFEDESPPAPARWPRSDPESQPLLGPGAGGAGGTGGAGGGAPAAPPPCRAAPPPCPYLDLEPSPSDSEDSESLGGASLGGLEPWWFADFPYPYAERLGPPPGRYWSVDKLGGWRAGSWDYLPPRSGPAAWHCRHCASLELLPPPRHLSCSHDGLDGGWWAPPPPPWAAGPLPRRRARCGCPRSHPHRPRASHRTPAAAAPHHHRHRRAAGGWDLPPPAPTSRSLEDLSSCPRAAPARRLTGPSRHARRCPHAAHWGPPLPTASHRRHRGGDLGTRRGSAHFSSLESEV
GluR1, sequence (P19490 19-907): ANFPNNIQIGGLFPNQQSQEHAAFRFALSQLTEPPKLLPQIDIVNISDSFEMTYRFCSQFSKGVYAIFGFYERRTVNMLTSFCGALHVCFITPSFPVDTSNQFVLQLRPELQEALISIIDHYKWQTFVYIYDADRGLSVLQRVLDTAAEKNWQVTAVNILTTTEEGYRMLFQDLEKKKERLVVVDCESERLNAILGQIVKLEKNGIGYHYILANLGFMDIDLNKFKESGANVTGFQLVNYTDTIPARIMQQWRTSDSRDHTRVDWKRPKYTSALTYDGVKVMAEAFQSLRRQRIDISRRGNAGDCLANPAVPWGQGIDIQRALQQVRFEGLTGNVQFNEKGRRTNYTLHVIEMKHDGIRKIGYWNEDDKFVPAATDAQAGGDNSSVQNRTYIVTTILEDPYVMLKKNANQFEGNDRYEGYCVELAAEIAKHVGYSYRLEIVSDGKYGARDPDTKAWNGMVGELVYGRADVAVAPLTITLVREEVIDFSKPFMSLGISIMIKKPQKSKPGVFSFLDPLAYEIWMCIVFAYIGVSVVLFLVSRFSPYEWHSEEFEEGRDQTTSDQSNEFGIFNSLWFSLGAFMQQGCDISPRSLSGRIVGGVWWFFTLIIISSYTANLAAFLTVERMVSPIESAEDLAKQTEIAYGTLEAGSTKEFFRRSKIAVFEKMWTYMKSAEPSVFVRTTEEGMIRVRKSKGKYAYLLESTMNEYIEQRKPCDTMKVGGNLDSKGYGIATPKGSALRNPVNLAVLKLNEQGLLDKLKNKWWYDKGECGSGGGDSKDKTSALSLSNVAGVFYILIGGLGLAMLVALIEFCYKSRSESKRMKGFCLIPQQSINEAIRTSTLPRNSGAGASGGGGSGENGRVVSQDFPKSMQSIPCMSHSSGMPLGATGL

Cc1nc2ccc(Br)cc2c(-c2ccccc2)c1C1=NN(C(=O)CCC(=O)O)C(c2ccc(Br)cc2)C1 (stereo not drawn) [compound 1210]
IC50 (NR1/NR2C [1]): 33 µM | 2A percent response at the maximum tested concentration (NR1/NR2A [2]): 85% at 100 μM | IC50 (NR1/NR2D [3]): 27 µM | IC50 (NR1/NR2B [4]): 209 µM

COc1ccc2c(c1)[C@]13CCCC[C@@H]1[C@H](C2)N(C)CC3 [Dextromethorphan]
IC50 (NR2D [5]): 1.5 µM | 2A/2B (ratio of IC50) (NR2B [6]; IC50 ratio): 3.1 | IC50 (NR2C): 1.1 µM | IC50 (NR2A): 11.3 µM | IC50 (NR2B [7]; read-out: 2B (μM) IC50, non-competitive and uncompetitive antagonists): 3.7 µM | 2A/2D (ratio of IC50) (NR2D [8]; IC50 ratio): 7.5

CCN(CC)C(=S)Oc1ccc(C(=O)Nc2cccc3ccccc23)cc1 [compound 1063]
effect on recombinant kainate receptors [9]: little effect | remaining activity at 100 µM (GluR1; at 100 μM, read-out: GluR1 percent effect at the maximum tested concentration): 105% | effect on recombinant AMPA receptors (GluR1; in words): little effect | IC50 (half maximally inhibiting concentration), NR1/NR2C (NR1/NR2C [10]; in words): low micromolar | mode of block of NR1/NR2C receptors (NR1/NR2C [10]; [15]): non-competitive and voltage-independent blocker | maximum inhibition of NR1/NR2C receptor function (NR1/NR2C [10]; voltage clamp): 85% | IC50 (NR1/NR2C [1]): 2 µM | effect on NR2A-containing receptors (NR1/NR2A [2]; in words): little effect | IC50 (NR1/NR2A [11]): 1370 µM | selectivity for NR1/NR2D compared to NR1/NR2A (NR1/NR2D [12]; fitted IC50 values): > 500 fold | IC50 (half maximally inhibiting concentration), NR1/NR2D (NR1/NR2D [12]; in words): low micromolar | mode of block of NR1/NR2D receptors (NR1/NR2D [12]; [15]): non-competitive and voltage-independent blocker | maximum inhibition of NR1/NR2D receptor function (NR1/NR2D [12]; voltage clamp): 85% | IC50 (NR1/NR2D [3]): 1 µM | effect on NR2B-containing receptors (NR1/NR2B [13]; in words): little effect | IC50 (NR1/NR2B [4]): 1230 µM

Cc1ccc2[nH]c(=O)c(C3=NN(C(=O)CCC(=O)O)C(c4ccc(Br)cc4)C3)c(-c3ccccc3)c2c1 (stereo not drawn) [compound 1105]
IC50 (GluR1; logistic fit, minimum forced to 0): 109 µM | IC50 (NR1/NR2C [10]): 7 µM | IC50 (NR1/NR2C [1]): 7 µM | IC50 (NR1/NR2A [11]): 218 µM | IC50 (NR1/NR2D [12]; logistic fit, minimum forced to 0, read-out: 2D IC50): 3 µM | IC50 (NR1/NR2D [3]): 3 µM | IC50 (NR1/NR2B [4]): 74 µM

O=C(O)[C@H]1NCCN(C(=O)c2ccc3ccc4ccccc4c3c2)[C@H]1C(=O)O [UBP141]
potency estimated from few doses (NR2D [5]): 2.8 µM | selectivity for NR2D over NR2A (NR2D [5]; estimated Ki): ~5 fold | 2A/2B (ratio of Ki**) (NR2B [6]): 0.7** | potency estimated from few doses (NR2C): 4.2 µM | potency estimated from few doses (NR2A): 14.2 µM | potency estimated from few doses (NR2B [7]): 19.3 µM | 2A/2D (ratio of Ki**) (NR2D [8]): 5.1**

O=C(O)CCC(=O)N1N=C(c2c(-c3ccccc3)c3cc(Cl)ccc3[nH]c2=O)CC1c1ccc(Br)cc1 (stereo not drawn) [compound 1179]
IC50 (NR1/NR2C [10]): 4 µM | IC50 (NR1/NR2C [1]): 4 µM | IC50 (NR1/NR2A [11]): 123 µM | IC50 (NR1/NR2D [3]): 2 µM | IC50 (NR1/NR2B [13]; logistic fit, minimum forced to 0, read-out: 2B IC50): 22 µM | IC50 (NR1/NR2B [4]): 22 µM

O=c1[nH]c2cc(Cl)c(Cl)c([N+](=O)[O-])c2[nH]c1=O [ACEA-1021]
Kb (NR2D [5]; Kb determined by Schild analysis, read-out: 2D (μM) Kb): 0.011 µM | 2A/2B (ratio of Kb) (NR2B [6]; Kb ratio): 1.0 | Kb (NR2C; Kb determined by Schild analysis, read-out: 2C (μM) Kb): 0.003 µM | Kb (NR2A; Kb determined by Schild analysis, read-out: 2A (μM) Kb): 0.004 µM | Kb (NR2B [7]; Kb determined by Schild analysis, read-out: 2B (μM) Kb): 0.004 µM | 2A/2D (ratio of Kb) (NR2D [8]; Kb ratio): 0.4

O=C(O)CCC(=O)N1N=C(c2c(-c3ccccc3)c3cc(Br)ccc3[nH]c2=O)CC1c1ccc(F)cc1 (stereo not drawn) [compound 1184]
IC50 (NR1/NR2C [1]): 33 µM | 2A percent response at the maximum tested concentration (NR1/NR2A [2]): 87% at 100 μM | IC50 (NR1/NR2D [3]): 22 µM | IC50 (NR1/NR2B [4]): 90 µM

O=C(O)[C@H]1CN(CCCP(=O)(O)O)CCN1 [(R)CPP]
potency estimated from few doses (NR2D [5]): 2 µM | 2A/2B (ratio of Ki**) (NR2B [6]): 0.2** | potency estimated from few doses (NR2C): 0.63 µM | potency estimated from few doses (NR2A): 0.04 µM | potency estimated from few doses (NR2B [7]): 0.27 µM | 2A/2D (ratio of Ki**) (NR2D [8]): 0.02**

CC(C(O)c1ccc(O)cc1)N1CCC(Cc2ccccc2)CC1 (stereo not drawn) [Ifenprodil]
IC50 (NR2D [5]): 76 µM | IC50 (NR2C): 29 µM | IC50 (NR2A): 40 µM | identification in test screen of NR1/NR2D expressing BHK cells (NR1/NR2D [14]): successfully identified
